The text below walks through data of patent publication US20090175838A1, “METHODS OF MODULATING IMMUNE FUNCTION” (priority 2007, published 2009).

No end group written: not given here. *: point of attachment. Biotin = O=C1N[C@H]2[C@H](CS[C@H]2CCCCC(=O)*)N1

Assay [1] relates to human B-cell lines, Raji and Daudi. In words: Binding of biotinylated synthetic peptide to B-cell lines (Streptavidin-PE flow cytometry). The class given is cell-based. The settings on record: 50 μM. Here is the method:
(§1) The ability of synthetic peptides to compete with binding of CLIP peptides and result in the cell surface expression of CD1d was determined.
(§2) Results: The results shown in FIG. 5 are expressed in histogram analyses. The Y axis represents cell number of the 5000 live cells versus the X axis which is a reflection of relative Fitc fluorescence versus Streptavidin-PE (eBioscience, Cat. #12-4317) that will bind with high affinity to cell-bound biotinylated peptides. The distance between the histogram from the isotype control staining versus the histogram reflecting the specific stain and is a measure of level of cell surface CD1d.
(§3) Cell Culture Conditions: The Raji and Daudi cell lines were purchased from American Type Culture Collection, were thawed, and grown in RPMI 1640 medium supplemented with standard supplements, including 10% fetal calf serum, gentamycin, penicillin, streptomycin, sodium pyruvate, HEPES buffer, 1-glutamine, and 2-ME.
Protocol: Cells were plated into a 12 well plate with 3 mls total volume containing approximately 1.5×10^6/well for Daudi cells and 3.0×10^6/well for Raji cells. Treatment groups included no treatment as control and biotinylated […] (SEQ ID NO. 1) (also referred to as MKN 5) at 50 μM final concentration based on the reported molarity of the synthesized compounds. […]
On the technique in general: Flow cytometry measures light scatter and fluorescence of single cells or particles in a stream.

Assay [2] concerns cell surface CD1d on Raji and Daudi cells. Description: Cell surface expression of CD1d after competing peptide (flow cytometry, anti-CD1d). The class given is cell-based, human. As to conditions: 50 μM, both cell lines. Here is the method:
as §1, §2, §3
Protocol: Cells were plated into a 12 well plate with 3 mls total volume containing approximately 1.5×10^6/well for Daudi cells and 3.0×10^6/well for Raji cells. Treatment groups included no treatment as control and biotinylated […] […]
Harvested cells were stained using standard staining procedure that called for a 1:100 dilution of PE anti-CD1d. […] Samples were acquired and analyzed on a Coulter Excel Flow Cytometer.

The test system of assay [3] is cell surface CLIP on Raji or Daudi cells. In words: MKN1 (bioCLIP) effect on cell surface CLIP level (flow cytometry). The class given is cell-based, human. The settings on record: 24 and 48 hours. Here is the method:
(§4) The ability of MKN1 (bioCLIP) to alter cell surface CLIP and CD74 levels was determined using Raji or Daudi cells.
(§5) Data were analyzed by histogram with Y axis represents cell number of the 5000 live cells versus the X axis which is a reflection of relative FITC fluorescence with either antibodies to CLIP or CD74. The distance between the histogram from the isotype control staining versus the histogram reflecting the specific stain and is a measure of level of cell surface CLIP or CD74 when staining a population of live Raji or Daudi cells.
as §3
(§6) Protocol: Cells were plated into a 12-well plate with 3 mls total volume containing approximately 0.5×10^6/mL for Daudi cells and 0.5×10^6/mL for Raji cells. […]
(§7) Harvested cells were stained using standard staining procedure that called for a 1:100 dilution of Fitc-anti-human CLIP or CD74 antibody (FITC, Pharmingen, Cat # 554647) or isotype control. […] Samples were acquired and analyzed on a Coulter Excel Flow Cytometer.

In assay [4] the test system is cell surface CD74 on Raji or Daudi cells. In words: MKN1 (bioCLIP) effect on cell surface CD74 level (flow cytometry). The class given is cell-based, human. As to conditions: 24 and 48 hours. Here is the method:
as §4, §5, §3, §6, §7

Chain of cell surface CLIP on Raji or Daudi cells (P04233 97-120): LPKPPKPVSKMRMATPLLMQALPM

For the substance FRIMAVLAS (also: biotin), the “binding of biotinylated peptide to B-cell lines” value in assay [1] (4 hours) is recorded as “bound with high affinity”; in assay [1] (24 hours), “Less binding”. The “cell surface expression of CD1d” value in assay [2] (4 hours) is “marginally”; in assay [2] (24 hours) it was “slightly more”.

For “SGG GSK MRM ATP LLM QAL Y (Biotin-SGGGSKMRMATPLLMQALY) [MKN1 (bioCLIP)]”, the “cell surface CLIP level” value in assay [3] was “alters cell surface CLIP and CD74 levels”. Further, the “cell surface CD74 level” value in assay [4] is “alters cell surface CLIP and CD74 levels”.
